According to ChEMBL document CHEMBL1133317, “The solid phase synthesis of tetrahydroisoquinolines having cdc25B inhibitory activity” (Bioorg Med Chem Lett, 2000):

biological target: T1, M-phase inducer phosphatase 2 (Homo sapiens) (UniProt P30305); test: Inhibitory activity against Cell division cycle 25B at 100 uM
T1 sequence (whole entry): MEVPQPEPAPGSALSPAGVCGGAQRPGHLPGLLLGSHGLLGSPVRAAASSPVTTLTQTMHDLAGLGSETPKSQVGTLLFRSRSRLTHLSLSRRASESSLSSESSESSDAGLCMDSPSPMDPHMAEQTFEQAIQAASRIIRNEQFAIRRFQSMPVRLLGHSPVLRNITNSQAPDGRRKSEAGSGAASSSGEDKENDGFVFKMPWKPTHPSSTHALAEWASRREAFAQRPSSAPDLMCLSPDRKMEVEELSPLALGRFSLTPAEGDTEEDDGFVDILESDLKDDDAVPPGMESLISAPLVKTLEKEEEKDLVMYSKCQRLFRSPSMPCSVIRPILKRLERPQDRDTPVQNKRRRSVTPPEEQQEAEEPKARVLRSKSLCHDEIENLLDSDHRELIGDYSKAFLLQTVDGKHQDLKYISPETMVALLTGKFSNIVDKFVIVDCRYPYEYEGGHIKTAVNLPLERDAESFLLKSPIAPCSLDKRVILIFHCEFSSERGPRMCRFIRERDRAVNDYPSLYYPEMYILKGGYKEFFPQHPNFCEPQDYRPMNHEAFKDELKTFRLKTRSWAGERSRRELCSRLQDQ

First: N#C/C(=C\c1ccccc1)C(=O)N1Cc2c(cc(I)c(OCC(=O)OCc3ccccc3)c2I)C[C@H]1C(=O)O
Second: C/C(=C\c1ccccc1)C(=O)N1Cc2c(cc(I)c(OCC(=O)OCc3ccccc3)c2I)C[C@H]1C(=O)O
The inhibition of the first is higher: 36% for the first, 24% for the second.

Compared with `COc1cccc(COc2c(I)cc3c(c2I)CN(C(=O)/C=C/c2cc(OC)c(OC)c(OC)c2)[C@H](C(=O)O)C3)c1`, `COc1cccc(COc2c(I)cc3c(c2I)CN(C(=O)/C=C/c2ccccc2F)[C@H](C(=O)O)C3)c1` is higher in inhibition: 25% for the first, 34% for the second.

Compared with `O=C(O)[C@@H]1Cc2cc(I)c(OCc3cccc(C(F)(F)F)c3)c(I)c2CN1C(=O)/C=C/c1ccc(Cl)cc1`, `C/C(=C\c1ccccc1)C(=O)N1Cc2c(cc(I)c(OCCCCl)c2I)C[C@H]1C(=O)O` is lower in inhibition: 22% for the first, 12% for the second.
